{
  "source": "patent US7725174B2",
  "about": "(priority 2006, dated 2010)",
  "key": {"human volunteer subjects [1]": {"tested_on": "human volunteer subjects", "conditions": "one subject", "from_the_text": "As with ApEn, these entropy measures compare changes in the time series of raw EEG data as it is generated. However, they are designed to determine qualities about the system which is generating the data. As such, they have potential to impart information about changes in CNS rather than just changes in the EEG. Information can be related about the CNS from a mesoscopic scale to a microscopic scale. […] Correlation dimension has not been used for real time analyses in the past because the computation usually requires large data sets for precise determination of the actual dimension of the data space. (See, Preissl, H., W. Lutzenberger, F. Pulvermuller, and N. Birbaumer, Fractal dimensions of short EEG time series in humans. Neurosci Lett, 1997. 225: p. 77-80.) To address this problem, we used short segments (e.g., 10 seconds) of data to calculate the correlation dimension and averaged the critical distance parameter ε, with each new estimate. Though this limits the accuracy with which signal dimension can be determined, it provides a reasonable estimate that changes as signal complexity changes.\nUsing the same raw EEG data, Lyapunov exponents of the EEG were also determined. Lyapunov exponents provide a qualitative indicator of signal stability. Unstable signals are sensitive to initial conditions and thus the predictability of their future trajectory is difficult. […]"}, "human volunteer subjects [2]": {"tested_on": "human volunteer subjects", "conditions": "in vivo"}},
  "data": [
    {"compound": "CC(C)c1cccc(C(C)C)c1O", "note": "[propofol]", "values": [
      {"measurement": "Lyapunov exponent with increasing sedation", "setting": "human volunteer subjects [1]; FIG. 9", "result": "tends towards a positive value"},
      {"measurement": "changes in correlation dimension by clinical frequency band", "setting": "human volunteer subjects [1]; awake to deeper levels of sedation, FIG. 8", "result": "appear in the higher frequency ranges first"},
      {"measurement": "change in ApEn with drug concentration", "setting": "human volunteer subjects [2]", "result": "decreased"}
    ]}
  ]
}
